From patent publication US12220412B2, “Methods for administering corticosteroids” (Sparrow Pharmaceuticals, Inc., priority 2018, dated 2025)

Columns and labels:
[1] = test system: magnesium-deficient mice; assay: Corticosterone (CS)-induced tail biting behavior in magnesium-deficient mice given N-methyl-D-aspartate; assay type: in vivo; conditions: N-methyl-D-aspartate and corticosterone, single doses of 0.3 to 3 mg/kg
Excerpt: (a) no CS; (b)-(f) CS; dosage of Compound A (mg/kg): (b) 0; (c) 0.01; (d) 0.03; (e) 1; (f) 3.
Increased tail biting, an anxiety behavior, was induced in magnesium-deficient mice with administration of N-methyl-D-aspartate and corticosterone (CS). Tail biting was not induced by N-methyl-D-aspartate without co-administration of CS (FIG. 9(a)).

[2] = biological target: T1, HSD-1 (Homo sapiens, UniProt P28845); assay: Brain HSD-1 occupancy by PET with [11C]AS2471907 after single dose; assay type: in vivo; design: from tissue; host or cells: in vivo, human subjects; conditions: for HSD-1 occupancy: single dose 3 mg
T1 sequence (P28845 whole entry, the tested form may be a part): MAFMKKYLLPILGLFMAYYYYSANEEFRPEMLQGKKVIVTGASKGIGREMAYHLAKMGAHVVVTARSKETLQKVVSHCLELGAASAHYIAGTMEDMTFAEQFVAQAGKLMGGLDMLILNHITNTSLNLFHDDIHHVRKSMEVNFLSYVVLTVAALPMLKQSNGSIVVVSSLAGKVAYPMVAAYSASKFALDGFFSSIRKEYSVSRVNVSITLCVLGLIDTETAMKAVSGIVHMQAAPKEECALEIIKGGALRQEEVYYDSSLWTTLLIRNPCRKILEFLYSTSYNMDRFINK
Description: The level and time course of HSD-1 occupancy following single dose administration of Compound A were assessed in healthy male subjects by positron emission tomography (PET). For each PET scan, [11C]AS2471907 was administered by an intravenous infusion pump, followed by up to 120 minutes of dynamic PET data acquisition. Most subjects underwent two PET scans.

[3] = Population pharmacokinetics model for Compound A from two clinical trials; assay type: in vivo, human
Description: On the basis of data from two Compound A clinical trials, a population pharmacokinetics model (FIG. 4) was developed using a maximal dose of 20 mg. The selected model to describe the pharmacokinetics of Compound A was a two-compartment disposition model, with a 4-compartment transit absorption, saturable binding from the central compartment, and first-order elimination. Inter-individual variability was implemented on clearance (CL), volume of distribution (V2), absorption rate constant (kA), second order association constant (Kon), first order dissociation constant (Koff), and total number of saturable binding receptors (R). This model had satisfactory goodness-of-fit and acceptable relative standard errors.
CL, kA, R, Kon, and Koff are defined above. BAV is relative bioavailability, kTR is a transit rate constant (equal to kA), k23 and k32 are transfer rate constants between central and peripheral compartments.
The covariate effect was moderate (25% increase of BAV in 88-year old subjects compared to 36-year old subjects).

[4] = biological target: T1, HSD-1; assay: Direct sigmoidal Emax model of plasma concentration vs brain HSD-1 occupancy (ROIswa); assay type: in vivo; design: from tissue; host or cells: in vivo, human subjects; conditions: brain HSD-1 occupancy (ROIswa) vs plasma concentration
Description: Simulations of brain enzyme occupancy were conducted for several dosing schemes for Compound A that involved both an initial dose and a maintenance dose.
The relationship of Compound A plasma concentrations to region of interest size weighted average (ROIswa) HSD-1 occupancy in brain was best described by a direct sigmoidal Emax model (FIG. 5).

Cn1c(-c2ccc(C(N)=O)cc2F)nnc1C(C)(C)Oc1c(F)cc(Cl)cc1F [Compound A]
CS-dependent increase of tail biting behavior [1]: fully reversed | Occupancy (ROIswa), PET Scan 1 ([2]; Subject A, 30 mg single dose, 2.62 hrs post dose): 99.68% | Occupancy (ROIswa), PET Scan 2 ([2]; Subject A, 30 mg single dose, 23.75 hrs post dose): 99.71% | Occupancy (ROIswa), PET Scan 1 ([2]; Subject B, 30 mg single dose, 27.43 hrs post dose): 99.97% | Occupancy (ROIswa), PET Scan 2 ([2]; Subject B, 30 mg single dose, 46.75 hrs post dose): 98.83% | Occupancy (ROIswa), PET Scan 1 ([2]; Subject C, 6 mg single dose, 3.25 hrs post dose): 99.73% | Occupancy (ROIswa), PET Scan 2 ([2]; Subject C, 6 mg single dose, 23.74 hrs post dose): 96.20% | Occupancy (ROIswa), PET Scan 1 ([2]; Subject D, 3 mg single dose, 3.27 hrs post dose): 89.91% | Occupancy (ROIswa), PET Scan 2 ([2]; Subject D, 3 mg single dose, 45.25 hrs post dose): 83.15% | Occupancy (ROIswa), PET Scan 1 ([2]; Subject E, 3 mg single dose, 19.2 hrs post dose): 88.16% | Occupancy (ROIswa), PET Scan 2 ([2]; Subject E, 3 mg single dose, 25.43 hrs post dose): 83.85% | Occupancy (ROIswa), PET Scan 1 ([2]; Subject F, 3 mg single dose, 42.19 hrs post dose): 58.87% | Occupancy (ROIswa), PET Scan 2 ([2]; Subject F, 3 mg single dose, 138.67 hrs post dose): 45.49% | Occupancy (ROIswa), PET Scan 1 ([2]; Subject G, 3 mg single dose, 42.46 hrs post dose): 70.96% | Occupancy (ROIswa), PET Scan 2 ([2]; Subject G, 3 mg single dose, 189.15 hrs post dose): 25.61% | Occupancy (ROIswa), PET Scan 1 ([2]; Subject H, 3 mg single dose, 43.85 hrs post dose): 56.39% | Occupancy (ROIswa), PET Scan 2 ([2]; Subject H, 3 mg single dose, 139.36 hrs post dose): 36.31% | Occupancy (ROIswa), PET Scan 1 ([2]; Subject I, 3 mg single dose, 46.24 hrs post dose): 60.92% | Occupancy (ROIswa), PET Scan 1 ([2]; Subject J, 2 mg single dose, 2.84 hrs post dose): <0% | Occupancy (ROIswa), PET Scan 1 ([2]; Subject K, 1 mg single dose, 3.24 hrs post dose): <0% | Occupancy (ROIswa), PET Scan 2 ([2]; Subject K, 1 mg single dose, 20.66 hrs post dose): <0% | Occupancy (ROIswa), PET Scan 1 ([2]; Subject L, 1 mg single dose, 22.55 hrs post dose): <0% | Occupancy (ROIswa), PET Scan 2 ([2]; Subject L, 1 mg single dose, 47.95 hrs post dose): <0% | enzyme occupancy ([2]; single 2 and 1 mg doses): no enzyme occupancy was detected | HSD-1 occupancy ([2]; 19.2-25.43 hours post dose): ~86% | HSD-1 occupancy ([2]; 42.19-46.24 hours post dose): 60-80% | HSD-1 occupancy ([2]; 138.67-139.36 hours post dose): ~40% | HSD-1 occupancy ([2]; 3.25 hours post dose): ~90% | HSD-1 occupancy ([2]; 189.15 hours post dose): 26% | region of interest size weighted average (ROIswa) HSD-1 occupancy ([2]; single doses of 30 and 6 mg, scan times 2.62 to 46.75 hours post dose): > 96% | increase of BAV (relative bioavailability), covariate effect of age ([3]; 88-year old subjects compared to 36-year old subjects): 25% | Covariate: age on BAV (relative bioavailability), estimate ([3]; population PK model): 0.200 | Koff (first order dissociation constant, saturable binding), estimate ([3]; population PK model): 0.210 h⁻¹ | Kon (second order association constant, saturable binding), estimate ([3]; population PK model): 0.0682 µg⁻¹ h⁻¹ | R (total number of saturable binding receptors), estimate ([3]; population PK model): 3170 nmol | V2 (volume of distribution), estimate ([3]; population PK model): 90.2 L/70 kg | amount of Compound A corresponding to estimated total number of saturable binding receptors ([3]; population PK model): 1.347 mg | k23 (transfer rate constant between central and peripheral compartments), estimate ([3]; population PK model): 0.00341 h^−1/(70 kg)^−0.25 | k32 (transfer rate constant between central and peripheral compartments), estimate ([3]; population PK model): 0.0255 h^−1/(70 kg)^−0.25 | kA (absorption rate constant), estimate ([3]; population PK model): 5.38 h⁻¹ | CL (clearance), estimate ([3]; population PK model, doses up to 20 mg): 7.24 L/h/(70 kg)^0.75 | Hill coefficient, estimate [4]: 1.53 | Maximum effect, Emax (% HSD-1 occupancy), estimate [4]: 97.6% | EC50 ([4]; read-out: Plasma concentration when half Emax is achieved, EC50, estimate (converted)): 0.24 nM
